# Data published in patent US6689773B2, “Uracil substituted phenyl sulfamoyl carboxamides” (BASF Aktiengesellschaft, priority 2000, dated 2004).
# Legend:
# Type in all cases: in vivo
# [1] = system: ABUTH, Velvetleaf, Abutilon theophrasti, Medic.; experiment: Postemergence herbicidal evaluation (Example 147); conditions: rating scale 0-9, two to three weeks after treatment
# In short: (§1)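 Visual 0-9 rating against an untreated control, scored roughly two to three weeks after a postemergence spray of two-week-old seedlings. Dose equivalent about 0.016 to 0.032 kg/ha, delivered in 80/20 acetone/water with 1.0% SUN-IT II at 40 psi.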
# [2] = system: ALOMY, Blackgrass, Alopecurus myosuroides; experiment: Postemergence herbicidal evaluation (Example 147); conditions: rating scale 0-9, two to three weeks after treatment
# In short: as §1
# [3] = system: AMBEL, Ragweed, Common, Ambrosia artemiisifolia, L.; experiment: Postemergence herbicidal evaluation (Example 147); conditions: rating scale 0-9, two to three weeks after treatment
# In short: as §1
# [4] = system: CHEAL, Lambsquarters, Chenopodium album, L. Common; experiment: Postemergence herbicidal evaluation (Example 147); conditions: rating scale 0-9, two to three weeks after treatment
# In short: as §1
# [5] = system: DIGSA, Crabgrass, (Hairy) L, Digitaria sanguinalis, (L)Scop; experiment: Postemergence herbicidal evaluation (Example 147); conditions: rating scale 0-9, two to three weeks after treatment
# In short: as §1
# [6] = system: ECHCG, Barnyardgrass, Echinochloa crusgalli, (L.)Beau; experiment: Postemergence herbicidal evaluation (Example 147); conditions: rating scale 0-9, two to three weeks after treatment
# In short: as §1
# [7] = system: GLXMA, Soybean, Glycine max, (L.) Merr.; experiment: Postemergence herbicidal evaluation (Example 147); conditions: rating scale 0-9, two to three weeks after treatment
# In short: as §1
# [8] = system: IPOHE, Morningglory, Ivyleaf, Ipomoea hederacea, (L)Jacq.; experiment: Postemergence herbicidal evaluation (Example 147); conditions: rating scale 0-9, two to three weeks after treatment
# In short: as §1
# [9] = system: SETVI, Green foxtail, Setaria viridis, (L.)Beau; experiment: Postemergence herbicidal evaluation (Example 147); conditions: rating scale 0-9, two to three weeks after treatment
# In short: as §1
# [10] = system: TRZAW, Winter wheat, Tritium Aestivum, L. (Winter); experiment: Postemergence herbicidal evaluation (Example 147); conditions: rating scale 0-9, two to three weeks after treatment
# In short: as §1
# [11] = system: XANST, Cocklebur, Xanthium strumariam; experiment: Postemergence herbicidal evaluation (Example 147); conditions: rating scale 0-9, two to three weeks after treatment
# In short: as §1
# [12] = system: ZEAMX, Field corn, Zea mays L.; experiment: Postemergence herbicidal evaluation (Example 147); conditions: rating scale 0-9, two to three weeks after treatment
# In short: as §1
# [13] = system: ABUTH, Velvetleaf, Abutilon theophrasti, Medic.; experiment: Preemergence herbicidal evaluation (Example 148); conditions: rating scale 0-9, two to four weeks after treatment
# In short: (§2)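 Test compound was applied in aqueous acetone to freshly planted cups at an equivalent of about 0.125 to 0.250 kg/ha, before emergence. Ratings, taken after two to four weeks of greenhouse growth, were averaged where a compound was tested more than once.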
# [14] = system: ALOMY, Blackgrass, Alopecurus myosuroides; experiment: Preemergence herbicidal evaluation (Example 148); conditions: rating scale 0-9, two to four weeks after treatment
# In short: as §2
# [15] = system: AMBEL, Ragweed, Common, Ambrosia artemiisifolia, L.; experiment: Preemergence herbicidal evaluation (Example 148); conditions: rating scale 0-9, two to four weeks after treatment
# In short: as §2
# [16] = system: CHEAL, Lambsquarters, Chenopodium album, L. Common; experiment: Preemergence herbicidal evaluation (Example 148); conditions: rating scale 0-9, two to four weeks after treatment
# In short: as §2
# [17] = system: DIGSA, Crabgrass, (Hairy) L, Digitaria sanguinalis, (L)Scop; experiment: Preemergence herbicidal evaluation (Example 148); conditions: rating scale 0-9, two to four weeks after treatment
# In short: as §2
# [18] = system: ECHCG, Barnyardgrass, Echinochloa crusgalli, (L.)Beau; experiment: Preemergence herbicidal evaluation (Example 148); conditions: rating scale 0-9, two to four weeks after treatment
# In short: as §2
# [19] = system: GLXMA, Soybean, Glycine max, (L.) Merr.; experiment: Preemergence herbicidal evaluation (Example 148); conditions: rating scale 0-9, two to four weeks after treatment
# In short: as §2
# [20] = system: IPOHE, Morningglory, Ivyleaf, Ipomoea hederacea, (L)Jacq.; experiment: Preemergence herbicidal evaluation (Example 148); conditions: rating scale 0-9, two to four weeks after treatment
# In short: as §2
# [21] = system: SETVI, Green foxtail, Setaria viridis, (L.)Beau; experiment: Preemergence herbicidal evaluation (Example 148); conditions: rating scale 0-9, two to four weeks after treatment
# In short: as §2
# [22] = system: TRZAW, Winter wheat, Tritium Aestivum, L. (Winter); experiment: Preemergence herbicidal evaluation (Example 148); conditions: rating scale 0-9, two to four weeks after treatment
# In short: as §2
# [23] = system: XANST, Cocklebur, Xanthium strumariam; experiment: Preemergence herbicidal evaluation (Example 148); conditions: rating scale 0-9, two to four weeks after treatment
# In short: as §2
# [24] = system: ZEAMX, Field corn, Zea mays L.; experiment: Preemergence herbicidal evaluation (Example 148); conditions: rating scale 0-9, two to four weeks after treatment
# In short: as §2
smiles,measurement,setting,value
CN(Cc1ccccc1)S(=O)(=O)NC(=O)c1cc(-n2c(=O)cc(C(F)(F)F)n(C)c2=O)c(F)cc1Cl [Example 61],Postemergence herbicidal rating ABUTH,[1]; rate 0.016 kg/ha,9.0
same,Postemergence herbicidal rating ABUTH,[1]; rate 0.032 kg/ha,9.0
same,Postemergence herbicidal rating ALMOY,[2]; rate 0.016 kg/ha,1.0
same,Postemergence herbicidal rating ALMOY,[2]; rate 0.032 kg/ha,1.0
same,Postemergence herbicidal rating AMBEL,[3]; rate 0.016 kg/ha,9.0
same,Postemergence herbicidal rating AMBEL,[3]; rate 0.032 kg/ha,9.0
same,Postemergence herbicidal rating CHEAL,[4]; rate 0.016 kg/ha,9.0
same,Postemergence herbicidal rating CHEAL,[4]; rate 0.032 kg/ha,8.0
same,Postemergence herbicidal rating DIGSA,[5]; rate 0.016 kg/ha,7.0
same,Postemergence herbicidal rating DIGSA,[5]; rate 0.032 kg/ha,6.0
same,Postemergence herbicidal rating ECHCG,[6]; rate 0.016 kg/ha,7.0
same,Postemergence herbicidal rating ECHCG,[6]; rate 0.032 kg/ha,8.0
same,Postemergence herbicidal rating GLXMA,[7]; rate 0.016 kg/ha,8.5
same,Postemergence herbicidal rating GLXMA,[7]; rate 0.032 kg/ha,8.5
same,Postemergence herbicidal rating IPOHE,[8]; rate 0.016 kg/ha,8.0
same,Postemergence herbicidal rating IPOHE,[8]; rate 0.032 kg/ha,9.0
same,Postemergence herbicidal rating SETVI,[9]; rate 0.016 kg/ha,7.0
same,Postemergence herbicidal rating SETVI,[9]; rate 0.032 kg/ha,9.0
same,Postemergence herbicidal rating TRZAW,[10]; rate 0.016 kg/ha,6.0
same,Postemergence herbicidal rating TRZAW,[10]; rate 0.032 kg/ha,6.5
same,Postemergence herbicidal rating XANST,[11]; rate 0.016 kg/ha,9.0
same,Postemergence herbicidal rating XANST,[11]; rate 0.032 kg/ha,9.0
same,Postemergence herbicidal rating ZEAMX,[12]; rate 0.016 kg/ha,7.5
same,Postemergence herbicidal rating ZEAMX,[12]; rate 0.032 kg/ha,7.5
same,Preemergence herbicidal rating ABUTH,[13]; rate 0.125 kg/ha,9.0
same,Preemergence herbicidal rating ABUTH,[13]; rate 0.25 kg/ha,9.0
same,Preemergence herbicidal rating ALMOY,[14]; rate 0.125 kg/ha,0.0
same,Preemergence herbicidal rating ALMOY,[14]; rate 0.25 kg/ha,0.0
same,Preemergence herbicidal rating AMBEL,[15]; rate 0.125 kg/ha,9.0
same,Preemergence herbicidal rating AMBEL,[15]; rate 0.25 kg/ha,9.0
same,Preemergence herbicidal rating CHEAL,[16]; rate 0.125 kg/ha,9.0
same,Preemergence herbicidal rating CHEAL,[16]; rate 0.25 kg/ha,9.0
same,Preemergence herbicidal rating DIGSA,[17]; rate 0.125 kg/ha,6.0
same,Preemergence herbicidal rating DIGSA,[17]; rate 0.25 kg/ha,9.0
same,Preemergence herbicidal rating ECHCG,[18]; rate 0.125 kg/ha,4.0
same,Preemergence herbicidal rating ECHCG,[18]; rate 0.25 kg/ha,7.0
same,Preemergence herbicidal rating GLXMA,[19]; rate 0.125 kg/ha,9.0
same,Preemergence herbicidal rating GLXMA,[19]; rate 0.25 kg/ha,9.0
same,Preemergence herbicidal rating IPOHE,[20]; rate 0.125 kg/ha,9.0
same,Preemergence herbicidal rating IPOHE,[20]; rate 0.25 kg/ha,9.0
same,Preemergence herbicidal rating SETVI,[21]; rate 0.125 kg/ha,3.0
same,Preemergence herbicidal rating SETVI,[21]; rate 0.25 kg/ha,6.0
same,Preemergence herbicidal rating TRZAW,[22]; rate 0.125 kg/ha,2.0
same,Preemergence herbicidal rating TRZAW,[22]; rate 0.25 kg/ha,3.0
same,Preemergence herbicidal rating XANST,[23]; rate 0.125 kg/ha,9.0
same,Preemergence herbicidal rating XANST,[23]; rate 0.25 kg/ha,9.0
same,Preemergence herbicidal rating ZEAMX,[24]; rate 0.125 kg/ha,2.0
same,Preemergence herbicidal rating ZEAMX,[24]; rate 0.25 kg/ha,2.0
CN(c1ccccc1)S(=O)(=O)NC(=O)c1cc(-n2c(=O)cc(C(F)(F)F)n(C)c2=O)c(F)cc1Cl [Example 73],Postemergence herbicidal rating ABUTH,[1]; rate 0.016 kg/ha,9.0
same,Postemergence herbicidal rating ABUTH,[1]; rate 0.032 kg/ha,9.0
same,Postemergence herbicidal rating ALMOY,[2]; rate 0.016 kg/ha,2.0
same,Postemergence herbicidal rating ALMOY,[2]; rate 0.032 kg/ha,3.0
same,Postemergence herbicidal rating AMBEL,[3]; rate 0.016 kg/ha,9.0
same,Postemergence herbicidal rating AMBEL,[3]; rate 0.032 kg/ha,9.0
same,Postemergence herbicidal rating CHEAL,[4]; rate 0.016 kg/ha,8.0
same,Postemergence herbicidal rating CHEAL,[4]; rate 0.032 kg/ha,9.0
same,Postemergence herbicidal rating DIGSA,[5]; rate 0.016 kg/ha,4.0
same,Postemergence herbicidal rating DIGSA,[5]; rate 0.032 kg/ha,6.0
same,Postemergence herbicidal rating ECHCG,[6]; rate 0.016 kg/ha,4.0
same,Postemergence herbicidal rating ECHCG,[6]; rate 0.032 kg/ha,7.0
same,Postemergence herbicidal rating GLXMA,[7]; rate 0.016 kg/ha,8.5
same,Postemergence herbicidal rating GLXMA,[7]; rate 0.032 kg/ha,8.5
same,Postemergence herbicidal rating IPOHE,[8]; rate 0.016 kg/ha,9.0
same,Postemergence herbicidal rating IPOHE,[8]; rate 0.032 kg/ha,9.0
same,Postemergence herbicidal rating SETVI,[9]; rate 0.016 kg/ha,4.0
same,Postemergence herbicidal rating SETVI,[9]; rate 0.032 kg/ha,5.0
same,Postemergence herbicidal rating TRZAW,[10]; rate 0.016 kg/ha,5.5
same,Postemergence herbicidal rating TRZAW,[10]; rate 0.032 kg/ha,6.5
same,Postemergence herbicidal rating ZEAMX,[12]; rate 0.016 kg/ha,7.0
same,Postemergence herbicidal rating ZEAMX,[12]; rate 0.032 kg/ha,7.5
same,Preemergence herbicidal rating ABUTH,[13]; rate 0.125 kg/ha,9.0
same,Preemergence herbicidal rating ABUTH,[13]; rate 0.25 kg/ha,9.0
same,Preemergence herbicidal rating ALMOY,[14]; rate 0.125 kg/ha,0.0
same,Preemergence herbicidal rating ALMOY,[14]; rate 0.25 kg/ha,0.0
same,Preemergence herbicidal rating AMBEL,[15]; rate 0.125 kg/ha,9.0
same,Preemergence herbicidal rating AMBEL,[15]; rate 0.25 kg/ha,9.0
same,Preemergence herbicidal rating CHEAL,[16]; rate 0.125 kg/ha,9.0
same,Preemergence herbicidal rating CHEAL,[16]; rate 0.25 kg/ha,9.0
same,Preemergence herbicidal rating DIGSA,[17]; rate 0.125 kg/ha,3.0
same,Preemergence herbicidal rating DIGSA,[17]; rate 0.25 kg/ha,3.0
same,Preemergence herbicidal rating ECHCG,[18]; rate 0.125 kg/ha,0.0
same,Preemergence herbicidal rating ECHCG,[18]; rate 0.25 kg/ha,3.0
same,Preemergence herbicidal rating GLXMA,[19]; rate 0.125 kg/ha,0.0
same,Preemergence herbicidal rating GLXMA,[19]; rate 0.25 kg/ha,0.0
same,Preemergence herbicidal rating IPOHE,[20]; rate 0.125 kg/ha,9.0
same,Preemergence herbicidal rating IPOHE,[20]; rate 0.25 kg/ha,9.0
same,Preemergence herbicidal rating SETVI,[21]; rate 0.125 kg/ha,2.0
same,Preemergence herbicidal rating SETVI,[21]; rate 0.25 kg/ha,5.0
same,Preemergence herbicidal rating TRZAW,[22]; rate 0.125 kg/ha,0.0
same,Preemergence herbicidal rating TRZAW,[22]; rate 0.25 kg/ha,0.0
same,Preemergence herbicidal rating XANST,[23]; rate 0.125 kg/ha,3.0
same,Preemergence herbicidal rating XANST,[23]; rate 0.25 kg/ha,9.0
same,Preemergence herbicidal rating ZEAMX,[24]; rate 0.125 kg/ha,0.0
same,Preemergence herbicidal rating ZEAMX,[24]; rate 0.25 kg/ha,0.0
